Here are results for 37 compounds from ChEMBL document CHEMBL1131228, “Molecular modeling of phenothiazines and related drugs as multidrug resistance modifiers: a comparative molecular field analysis study” (1998).

The test system of the experiment is MCF7-DOX. Description: Anti MDR activity was expressed as MDR ratio or MDR fold reversal in doxorubicin resistant human breast carcinoma tumor cell line MCF-7/DOX. The experiment is classed as functional.

Take `CN(C)CCCCN1c2ccccc2Sc2ccc(Cl)cc21`: the MDR ratio was 2.
Then `CN(C)CCCN1c2ccccc2[S+]([O-])c2ccc(Cl)cc21` (configuration not stated) [CHLOROPROMAZINE SULFOXIDE], with 2.2; and `CN(C)CCCN1c2cc(Cl)ccc2Sc2cc(O)c(O)cc21`, with 0.8.
Then `OCCN1CCN(CCCC2c3ccccc3Sc3ccc(Cl)cc32)CC1` (configuration not stated), with 9.7; and `CN(C)CC/C=C1/c2ccccc2Sc2ccc(C(F)(F)F)cc21`, with 1.8.
Then `OCCN1CCN(CC/C=C2/c3ccccc3Sc3ccc(Cl)cc32)CC1` (stereo in doubt; 34) [ZUCLOPENTHIXOL], with 2.6; and `CCN(CC)CCCN1c2ccccc2Sc2ccc(Cl)cc21` [CHLORPROETHAZINE], with 2.2.
Regarding `CN(C)CCC=C1c2ccccc2Sc2ccc(C(F)(F)F)cc21`, the MDR ratio came to 2.8.
Then `OCCN1CCN(CC/C=C2/c3ccccc3Sc3ccc(Cl)cc32)CC1` (stereo in doubt; 35) [ZUCLOPENTHIXOL], with 15; and FLUPENTIXOL, with 4.8; and `CCN(CC)CCC=C1c2ccccc2Sc2ccc(Cl)cc21`, with 7.2.
Then `CC(CN1c2ccccc2Sc2ccccc21)N(C)C` (configuration not stated) [PROMETHAZINE], with 1.9; and `Clc1ccc2c(c1)/C(=C\CCN1CCCCC1)c1ccccc1S2`, with 6.7; and `CN(C)CCCN1c2ccccc2Sc2cc(Cl)ccc21`, with 1.3.
Then `CN(C)CC=C1c2ccccc2Sc2ccc(Cl)cc21`, with 1.3; and `OCCN1CCN(CCCN2c3ccccc3Sc3ccc(Cl)cc32)CC1` [PERPHENAZINE], with 2.
Take `CN(C)CCC=C1c2ccccc2Sc2ccc(Cl)cc21`: the MDR ratio stood at 7.
Then `CN1CCN(CCCN2c3ccccc3Sc3ccc(C(F)(F)F)cc32)CC1` [TRIFLUOPERAZINE], with 3.4; and `CCN(CC)CC/C=C1/c2ccccc2Sc2ccc(Cl)cc21`, with 4; and `CN(C)CC/C=C1/c2ccccc2Sc2ccc(Cl)cc21` [CHLORPROTHIXENE], with 2.
Then `CSc1ccc2c(c1)N(CCCN(C)C)c1ccccc1S2`, with 1.5.
Then `CN(C)CCCN1c2ccccc2Sc2ccc(Cl)cc21` [CHLORPROMAZINE], with 1.6; and `CNCCCN1c2ccccc2Sc2ccc(Cl)cc21` [NOR1-CHLORPROMAZINE], with 1.2; and `CN(C)CCCN1c2ccccc2CCc2ccccc21` [IMIPRAMINE], with 2.5.
As for `OCCN1CCN(C/C=C2/c3ccccc3Sc3ccc(Cl)cc32)CC1`, the MDR ratio was determined as 1.6.
Then `CN(C)C/C=C1/c2ccccc2Sc2ccc(Cl)cc21`, with 1.1; and `CN(C)CCCN1c2ccc(O)cc2Sc2ccc(Cl)cc21` [7-HYDROXYCHLORPROMAZINE], with 1; and `CN(C)CCCN1c2ccccc2Sc2cccc(Cl)c21`, with 1.3.
Then `OCCN1CCN(CC/C=C2/c3ccccc3Sc3ccc(C(F)(F)F)cc32)CC1` [Z-FLUPENTIXOL], with 15.2.
Then `Clc1ccc2c(c1)C(=CCCN1CCCCC1)c1ccccc1S2`, with 15.
`NCCCN1c2ccccc2Sc2ccc(Cl)cc21` [NOR2-CHLORPROMAZINE]: the MDR ratio turned out to be 1.1.
Then `OCCN1CCN(CCCN2c3ccccc3Sc3ccc(C(F)(F)F)cc32)CC1` [FLUPHENAZINE], with 2.7; and `CN(C)CCN1c2ccccc2Sc2ccc(Cl)cc21` [CHOLRPHENETHAZINE], with 1.5.
Then `CN(C)CCCN1c2cc(O)ccc2Sc2cc(O)c(Cl)cc21`, with 0.9.
Then `CN(C)CCCN1c2ccccc2Sc2ccccc21` [PROMAZINE], with 1.2.
Regarding `CN(C)CCCN1c2ccccc2Sc2c(Cl)cccc21`, the MDR ratio is given as 1.4.
Then `CCN(CC)CCCC(C)Nc1c2ccc(Cl)cc2nc2ccc(OC)cc12` (configuration not stated) [QUINACRINE], with 1.3.
